Structures can show the parent of a compound that is named as a salt.
Key:
Settings in all cases: averaged IC50
[1] = target: His-tagged recombinant human AXL cytoplasmic domain (Homo sapiens (Human), UniProt P30530); assay: AXL Enzyme Assay (LanthaScreen Eu Kinase Binding, TR-FRET)
Procedure, shortened: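 Compound displacement measured by TR-FRET after 60 min at 22 °C, using Eu-based LanthaScreen binding technology. Ratiometric emission converted to percent of control, fitted to a 4-parameter logistic curve, with IC50 at 50 POC.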

[2] = target: His-tagged recombinant human MER cytoplasmic domain (Homo sapiens (Human), UniProt Q12866); assay: MER Enzyme Assay (LanthaScreen Eu Kinase Binding, TR-FRET)
Chain of His-tagged recombinant human MER cytoplasmic domain (Q12866 527-999): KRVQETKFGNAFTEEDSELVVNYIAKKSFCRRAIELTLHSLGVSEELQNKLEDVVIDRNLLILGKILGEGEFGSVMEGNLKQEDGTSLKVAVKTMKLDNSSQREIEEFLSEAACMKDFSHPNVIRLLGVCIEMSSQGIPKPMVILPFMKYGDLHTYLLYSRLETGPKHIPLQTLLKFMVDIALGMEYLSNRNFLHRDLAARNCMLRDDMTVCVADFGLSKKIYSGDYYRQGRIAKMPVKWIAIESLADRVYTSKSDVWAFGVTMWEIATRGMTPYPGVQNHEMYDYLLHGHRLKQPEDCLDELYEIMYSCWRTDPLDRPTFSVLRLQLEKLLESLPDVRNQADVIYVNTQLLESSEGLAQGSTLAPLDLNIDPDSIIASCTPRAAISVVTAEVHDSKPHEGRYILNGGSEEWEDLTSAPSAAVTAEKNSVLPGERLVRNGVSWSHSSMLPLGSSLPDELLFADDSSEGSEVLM
Procedure, shortened: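 Percent of control, derived from ratiometric TR-FRET emission, was fitted to a 4-parameter logistic curve and IC50 taken at 50 POC. Binding was read after 60 min at 22 °C using Eu-based LanthaScreen technology and recombinant His-tagged MER cytoplasmic domain.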

[3] = target: GST-tagged recombinant human TYRO3 kinase domain (Homo sapiens (Human), UniProt Q06418); assay: TYRO3 Enzyme Assay (LanthaScreen Eu Kinase Binding, TR-FRET)
Chain of GST-tagged recombinant human TYRO3 kinase domain (Q06418 518-790): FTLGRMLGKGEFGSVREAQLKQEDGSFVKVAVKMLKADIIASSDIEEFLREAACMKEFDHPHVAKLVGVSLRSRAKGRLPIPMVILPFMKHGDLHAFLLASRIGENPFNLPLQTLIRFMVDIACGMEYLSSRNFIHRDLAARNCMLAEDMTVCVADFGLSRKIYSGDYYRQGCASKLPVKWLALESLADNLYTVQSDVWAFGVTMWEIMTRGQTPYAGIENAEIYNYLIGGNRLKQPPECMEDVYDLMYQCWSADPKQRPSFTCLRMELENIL
Procedure, shortened: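 LanthaScreen Eu binding (tracer displacement) format read by TR-FRET after 60 min at 22 °C. Emission ratio converted to percent of control; IC50 taken where a 4-parameter logistic fit crosses 50 POC.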

Chain of His-tagged recombinant human AXL cytoplasmic domain (P30530 473-894): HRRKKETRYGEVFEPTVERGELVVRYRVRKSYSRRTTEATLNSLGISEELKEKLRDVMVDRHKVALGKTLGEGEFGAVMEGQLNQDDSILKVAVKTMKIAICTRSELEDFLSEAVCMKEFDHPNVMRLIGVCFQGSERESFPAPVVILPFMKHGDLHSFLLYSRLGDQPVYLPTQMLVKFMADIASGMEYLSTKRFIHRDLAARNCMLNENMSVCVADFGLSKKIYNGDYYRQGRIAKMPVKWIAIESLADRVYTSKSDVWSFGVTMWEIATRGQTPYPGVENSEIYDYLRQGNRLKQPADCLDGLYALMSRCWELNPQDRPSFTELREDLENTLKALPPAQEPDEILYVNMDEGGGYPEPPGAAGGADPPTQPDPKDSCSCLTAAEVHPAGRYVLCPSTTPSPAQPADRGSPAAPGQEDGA

IC50 [1] [nM]	IC50 [2] [nM]	IC50 [3] [nM]	SMILES
< 10	< 10	< 10	CNc1cc2c(cn1)c(-c1ccn(C)c(=O)c1)nn2[C@H]1CC[C@@H](Oc2cccnc2C(F)(F)F)CC1 [Example 216, 1-methyl-4-(6-(methylamino)-1-((1s,4s)-4-((2-(trifluoromethyl)pyridin-3-yl)oxy)cyclohexyl)-1H-pyrazolo[4,3-c]pyridin-3-yl)pyridin-2(1H)-one]
< 10	< 10	< 10	CNc1cc2c(cn1)c(-c1ccc(=O)n(C)c1)nn2[C@H]1CC[C@@H](Oc2cccnc2C(F)(F)F)CC1 [Example 217, 1-methyl-5-(6-(methylamino)-1-((1s,4s)-4-((2-(trifluoromethyl)pyridin-3-yl)oxy)cyclohexyl)-1H-pyrazolo[4,3-c]pyridin-3-yl)pyridin-2(1H)-one]
< 10	< 10	< 10	CNc1cc2c(cn1)c(-c1ccc3c(c1)CNC3=O)nn2[C@H]1CC[C@@H](Oc2cccnc2C(F)(F)F)CC1 [Example 218, 5-(6-(methylamino)-1-((1s,4s)-4-((2-(trifluoromethyl)pyridin-3-yl)oxy)cyclohexyl)-1H-pyrazolo[4,3-c]pyridin-3-yl)isoindolin-1-one]
< 10	< 10	< 10	CCNc1cc2c(cn1)c(-c1ccn(C)c(=O)c1)nn2[C@H]1CC[C@@H](Oc2cccnc2C(F)(F)F)CC1 [Example 219, 4-(6-(ethylamino)-1-((1s,4s)-4-((2-(trifluoromethyl)pyridin-3-yl)oxy)cyclohexyl)-1H-pyrazolo[4,3-c]pyridin-3-yl)-1-methylpyridin-2(1H)-one hydrochloride]
< 10	< 10	< 10	CCNc1cc2c(cn1)c(-c1ccc3c(c1)CNS3(=O)=O)nn2[C@H]1CC[C@@H](Oc2cn(C)nc2C(F)(F)F)CC1 [Example 221, 5-(6-(ethylamino)-1-((1s,4s)-4-((1-methyl-3-(trifluoromethyl)-1H-pyrazol-4-yl)oxy)cyclohexyl)-1H-pyrazolo[4,3-c]pyridin-3-yl)-2,3-dihydrobenzo[d]isothiazole 1,1-dioxide]
< 10	< 10	< 10	CCNc1cc2c(cn1)c(-c1ccc3c(c1)CN(C)S3(=O)=O)nn2[C@H]1CC[C@@H](Oc2cn(C)nc2C(F)(F)F)CC1 [Example 222, 5-(6-(ethylamino)-1-((1s,4s)-4-((1-methyl-3-(trifluoromethyl)-1H-pyrazol-4-yl)oxy)cyclohexyl)-1H-pyrazolo[4,3-c]pyridin-3-yl)-2-methyl-2,3-dihydrobenzo[d]isothiazole 1,1-dioxide]
< 10	< 10	10 to 100	CCNc1cc2c(cn1)c(-c1cnn(C[C@H](O)C(C)(C)O)c1)nn2[C@H]1CC[C@@H](Oc2nccc(C(F)(F)F)c2F)CC1 [Example 236, (S)-1-(4-(6-(ethylamino)-1-((1s,4R)-4-((3-fluoro-4-(trifluoromethyl)pyridin-2-yl)oxy)cyclohexyl)-1H-pyrazolo[4,3-c]pyridin-3-yl)-1H-pyrazol-1-yl)-3-methylbutane-2,3-diol]
< 10	< 10	10 to 100	CCNc1cc2c(cn1)c(-c1cnn(C[C@@H](O)C(C)(C)O)c1)nn2[C@H]1CC[C@@H](Oc2nccc(C(F)(F)F)c2F)CC1 [Example 237, (R)-1-(4-(6-(ethylamino)-1-((1s,4R)-4-((3-fluoro-4-(trifluoromethyl)pyridin-2-yl)oxy)cyclohexyl)-1H-pyrazolo[4,3-c]pyridin-3-yl)-1H-pyrazol-1-yl)-3-methylbutane-2,3-diol]
< 10	< 10	10 to 100	CCNc1cc2c(cn1)c(-c1cnn(CC(C)(O)CO)c1)nn2[C@H]1CC[C@@H](Oc2nccc(C(F)(F)F)c2F)CC1 (stereo partly drawn) [Example 238, 3-(4-(6-(ethylamino)-1-((1s,4s)-4-((3-fluoro-4-(trifluoromethyl)pyridin-2-yl)oxy)cyclohexyl)-1H-pyrazolo[4,3-c]pyridin-3-yl)-1H-pyrazol-1-yl)-2-methylpropane-1,2-diol]
< 10	< 10	< 10	CCNc1cc2c(cn1)c(-c1cnn(C[C@H](O)[C@H](C)O)c1)nn2[C@H]1CC[C@@H](Oc2nccc(C(F)(F)F)c2F)CC1 [Example 239, (2S,3S)-1-(4-(6-(ethylamino)-1-((1s,4R)-4-((3-fluoro-4-(trifluoromethyl)pyridin-2-yl)oxy)cyclohexyl)-1H-pyrazolo[4,3-c]pyridin-3-yl)-1H-pyrazol-1-yl)butane-2,3-diol]
< 10	< 10	10 to 100	CCNc1cc2c(cn1)c(-c1cnn(C[C@@H](O)CO)c1)nn2[C@H]1CC[C@@H](Oc2cc(Cl)ccn2)CC1 [Example 246, (R)-3-(4-(1-((1s,4S)-4-((4-chloropyridin-2-yl)oxy)cyclohexyl)-6-(ethylamino)-1H-pyrazolo[4,3-c]pyridin-3-yl)-1H-pyrazol-1-yl)propane-1,2-diol]
< 10	< 10	< 10	CCNc1cc2c(cn1)c(-c1cnn(C[C@@H](O)C(C)(C)O)c1)nn2[C@H]1CC[C@@H](Oc2cn(C)nc2C(F)(F)F)CC1 [Example 247, (R)-1-(4-(6-(ethylamino)-1-((1s,4S)-4-((1-methyl-3-(trifluoromethyl)-1H-pyrazol-4-yl)oxy)cyclohexyl)-1H-pyrazolo[4,3-c]pyridin-3-yl)-1H-pyrazol-1-yl)-3-methylbutane-2,3-diol]
< 10	< 10	< 10	CCNc1cc2c(cn1)c(-c1cnn(CC(N)=O)c1)nn2[C@H]1CC[C@@H](Oc2nccc(C(F)(F)F)c2F)CC1 [Example 248, 2-(4-(6-(ethylamino)-1-((1s,4s)-4-((3-fluoro-4-(trifluoromethyl)pyridin-2-yl)oxy)cyclohexyl)-1H-pyrazolo[4,3-c]pyridin-3-yl)-1H-pyrazol-1-yl)acetamide]
< 10	< 10	10 to 100	CCNc1cc2c(cn1)c(C1=CCN(C)CC1)nn2[C@H]1CC[C@@H](Oc2nccc(C(F)(F)F)c2F)CC1 [Example 255]
< 10	< 10	< 10	CCNc1cc2c(cn1)c(-c1cnn(CC(=O)NC)c1)nn2[C@H]1CC[C@@H](Oc2nccc(C(F)(F)F)c2F)CC1 [Example 258, 2-(4-(6-(ethylamino)-1-((1s,4s)-4-((3-fluoro-4-(trifluoromethyl)pyridin-2-yl)oxy)cyclohexyl)-1H-pyrazolo[4,3-c]pyridin-3-yl)-1H-pyrazol-1-yl)-N-methylacetamide]
< 10	< 10	100 to 1000	CCNc1cc2c(cn1)c(-c1cnn(C(C)(C)C#N)c1)nn2[C@H]1CC[C@@H](Oc2nccc(C(F)(F)F)c2F)CC1 [Example 260, 2-(4-(6-(ethylamino)-1-((1s,4s)-4-((3-fluoro-4-(trifluoromethyl)pyridin-2-yl)oxy)cyclohexyl)-1H-pyrazolo[4,3-c]pyridin-3-yl)-1H-pyrazol-1-yl)-2-methylpropanenitrile]
< 10	< 10	10 to 100	CCNc1cc2c(cn1)c(-c1ccc(CN3CCN(C)CC3)cc1)nn2[C@H]1CC[C@@H](Oc2nccc(C(F)(F)F)c2F)CC1 [Example 261, N-ethyl-1-((1s,4s)-4-((3-fluoro-4-(tnfluoromethyl)pyridin-2-yl)oxy)cyclohexyl)-3-(4-((4-methylpiperazin-1-yl)methyl)phenyl)-1H-pyrazolo[4,3-c]pyridin-6-amine]
< 10	< 10	10 to 100	CNc1cc2c(cn1)c(-c1cnn(C)c1)nn2[C@H]1CC[C@@H](Oc2cnn(C)c2C(F)(F)F)CC1 [Example 262, N-methyl-3-(1-methyl-1H-pyrazol-4-yl)-1-((1s,4s)-4-((1-methyl-5-(trifluoromethyl)-1H-pyrazol-4-yl)oxy)cyclohexyl)-1H-pyrazolo[4,3-c]pyridin-6-amine]
< 10	< 10	100 to 1000	CNc1cc2c(cn1)c(-c1cnn(C(C)(C)C#N)c1)nn2[C@H]1CC[C@@H](Oc2cnn(C)c2C(F)(F)F)CC1 [Example 263, 2-methyl-2-(4-(1-((1s,4s)-4-((1-methyl-5-(trifluoromethyl)-1H-pyrazol-4-yl)oxy)cyclohexyl)-6-(methylamino)-1H-pyrazolo[4,3-c]pyridin-3-yl)-1H-pyrazol-1-yl)propanenitrile]
< 10	< 10	10 to 100	CNc1cc2c(cn1)c(-c1ccc(CN3CCN(C)CC3)cc1)nn2[C@H]1CC[C@@H](Oc2cnn(C)c2C(F)(F)F)CC1 [Example 264, N-methyl-1-((1s,4s)-4-((1-methyl-5-(trifluoromethyl)-1H-pyrazol-4-yl)oxy)cyclohexyl)-3-(4-((4-methylpiperazin-1-yl)methyl)phenyl)-1H-pyrazolo[4,3-c]pyridin-6-amine]
< 10	< 10	10 to 100	CCNc1cc2c(cn1)c(-c1cnn(CC(C)(C)CO)c1)nn2[C@H]1CC[C@@H](Oc2nccc(C(F)(F)F)c2F)CC1 [Example 271, 3-(4-(6-(ethylamino)-1-((1s,4s)-4-((3-fluoro-4-(trifluoromethyl)pyridin-2-yl)oxy)cyclohexyl)-1H-pyrazolo[4,3-c]pyridin-3-yl)-1H-pyrazol-1-yl)-2,2-dimethylpropan-1-ol hydrochloride]

Reference: patent publication US11247990B1, “Bicyclic fused pyridine compounds as inhibitors of TAM kinases” (ARRAY BIOPHARMA INC., priority 2017, dated 2022)
